Test system: FGF-2 signaling in BaF3-FR1C cells
Assay: BaF3-FR1C cell proliferation assay with FGF-2
Type: cell-based
Conditions: FGF-2 10 ng/ml; 2 days
Experimental: BaF3-FR1C Cell Proliferation Assay: Upon reception of a frozen vial, BaF3-FR1C cells were cultured and expanded in growth media as recommended (40). The cells were grown in RPMI1640 medium with 2 mM L-glutamine (Thermo Fisher) containing 10% newborn bovine calf serum (Thermo Fisher), 0.5 ng/mL of recombinant mouse IL-3 (Peprotech), 600 μg/mL of G418 sulfate (Thermo Fisher), 50 nM of 2-mercaptoethanol (Thermo Fisher), and 100 unit/mL penicillin and 100 μg/mL streptomycin (Thermo Fisher) at 37° C., 5% CO2. The medium was changed every 2 days. Experiments were performed using with 1-3 week old passaged cells. The BaF3-FR1C cells were first assessed with the CyQUANT direct cell proliferation assay (Thermo Fisher), but no change in fluorescent signal was observed from a 0 to 2 day old culture in growth conditions although the growth was evident under the microscope. […] For assays testing the effect of heparin and glycopeptide nanofibers FGF-2 induced proliferation, 10,000 cells/well were plated in 50 μl of growth media without G148 sulfate and recombinant mouse IL-3 (NT media) in a 96-well plate. We then added a 2×concentrated mixture of FGF-2 with heparin or glycopeptide nanofibers in the same NT media. […] The absorbance was read at 490 nm in a Cytation 3 instrument (BioTek) and cell growth was compared to cells in NT media. […]

3,4,6S-GlcNAc PA (VVAAEEK) [PA 1, glycosylated peptide amphiphile: Alkyne PA click-conjugated with trisulfated monosaccharide 1]
FGF-2 mediated cell proliferation: improved

From US11497788B2, “Supramolecular glycosaminoglycans” (Northwestern University, priority 2015, dated 2022)
